Test results published in patent US10301258B2, “Benzende sulfonamide derivatives as HIV integrase inhibitors” (priority 2014, dated 2019).
“Also recorded” adds a separate entry of the source.

What was measured:
[1] = tested on: HeLa cells; conditions: lentiviral vector screening, at high concentrations
Description: For the vector assay HeLa cells were utilized and the HIV-1 lentiviral vector screening was performed in a 24 well plate. […] As the negative control AZT was used, a positive control as vector only and blank as un-infected were additionally used. Again the concentration of DMSO was limited to 0.1%. Hela cells (˜3.2*10^5 cells/ml) were infected with HIV-1 lentiviral vector in the presence of the compound(s) tested and controls. After the first 24 hours of incubation at 37° C. (5% CO2), cells were replaced with fresh media containing test compounds and incubated for an additional 24 hrs. Cells were fixed with 4% paraformaldehyde in PBS and mounted in DAPI on glass slides for visualization and quantification. Images, of at least 2 fields per glass disk were taken with an Olympus 1X51 fluorescence microscope equipped with a camera.

[2] = tested on: HIV-1 lentiviral vector; assay: HIV-1 lentiviral vector screening assay; format: cell-based; conditions: HeLa cells, compared with no drug
Description: For the vector assay HeLa cells can be utilized and the experiment can be performed in a suitable plate, such as a 24 well plate. […] A negative control, e.g., AZT, and a positive control as vector only and blank as un-infected are appropriately selected. Again, the concentration of DMSO was limited to 0.1%. Hela cells (˜3.2-10^5 cells/ml) were infected with HIV-1 lentiviral vector in the presence of the compounds to be tested and controls. After the first 24 hours of incubation at 37° C. (5% CO2), cells are replaced with fresh media containing test compounds and incubated for an additional 24 hrs. Cells are fixed with 4% paraformaldehyde in PBS and mounted in DAPI on glass slides for visualization and quantification. Images, of at least 2 fields per glass disk are obtained, such as images taken with an Olympus 1X51 fluorescence microscope equipped with a camera. EGFP fluorescence spanning an average area of 12*10^5 square pixels is quantified using Image J software, from which IC50 values can bee extrapolated using graph pad PRISM software.
For the vector assay HeLa cells were utilized and the HIV-1 lentiviral vector screening was performed in a 24 well plate. […] Cells were fixed with 4% paraformaldehyde in PBS and mounted in DAPI on glass slides for visualization and quantification. […]

[3] = tested on: HIV-1 integrase (C-terminal domain), eGFP-MBP-IN-WT; assay: cellular integrase assay (integrase screening assay, nuclear import inhibition); format: cell-based; conditions: HEK 293T cells transfected with eGFP-MBP-IN-WT, fluorescence microscopy, FIG. 1
Description: In assessing suitability of a compound according to any of the formulas herein, an integrase screening assay can be conducted. In the present case, an exemplary such assay is a cellular integrase assay. A cellular integrase assay can be performed in a 24 well plate. The assay is designed to test compounds in 3-fold serial dilutions (10, 3.3, 1.1 and 0.33 μM) with 0.1% DMSO. Negative and positive control included eGFP-MBP-IN-R262/3/6A, eGFP-MBP-IN-K236/240 and eGFP-MBP-IN-WT respectively supplemented with 0.1% DMSO. Refinement of the assay for optimal results is feasible. For example, refinement herein yields the following protocol. HEK 293T cells (˜0.4*10^5 cells/ml) are seeded and incubated at 37° C. (5% CO2) for ˜3 days on Poly-L-lysine treated glass coverslips until 80-90% confluent (˜3.2*10^5 cells/ml). Next, cells are transfected with 1 μg of eGFP-MBP-INR262/3/6A, eGFP-MBP-IN-K236/240 and eGFP-MBP-IN-WT DNA plasmid simultaneously with test compounds, at varying concentrations mentioned above, using lipofectamine 2000 transfection reagent (μL) at a ratio of 1:2 DNA plasmid to lipofectamine. After 4 hrs of incubation (at 37° C., 5% CO2), the lipofectamine mix is removed and replaced with fresh medium containing serum in the presence of the test compounds. […] Images may be prepared using an Olympus 1X51 fluorescence microscope equipped with a camera by way of example. […]

Structure (SMILES): Cc1ccc(S(=O)(=O)NCCCNS(=O)(=O)c2ccc(C)cc2)cc1 [compound 535, 4-methyl-N-[3-(4-methylbenzenesulfonamido)propyl] benzene sulfonamide]
- cellular toxicity [1]: without introducing cellular toxicity
- inhibitory effect on HIV infectivity / HIV-1 replication, dose dependence ([2]; FIG. 2): exhibited an inhibitory effect in a dose dependent manor
- inhibitory effect on HIV infectivity / HIV-1 replication, dose dependence ([2]; FIG. 2, listed as representative compound): clearly inhibited HIV-1 replication in a dose-dependent manor
- inhibition of nuclear import of integrase (nuclear exclusion phenotype) [3]: nuclear exclusion of the fusion protein in majority of cells; also recorded: exhibited inhibition sufficient to prevent nuclear import of integrase; also recorded: clearly demonstrates inhibition of nuclear import of IN
- inhibition of nuclear import of integrase (nuclear exclusion phenotype) ([3]; listed as representative compound): displayed inhibition of nuclear import of IN similar to that of the triple mutant chimeric IN
